The test system of data set [1] is APP. Description: Western blot of APP processing products (sAPPα, sAPPβ, holoAPP, αCTF) in H4βAPP695 wt cells. Format: cell-based, human.
For data set [2], the system named is Caco-2 cells. Description: Epithelial transcellular transport of drug activity through Caco-2 monolayers. Format: in vitro ADME. On the procedure:
H4βAPP695 wt cells, a human […] cell line stably transfected with a wtβAPP695 expression vector construct under the control of a CMV promoter (kindly provided by Dr. Chris Eckman from Mayo Clinic, Florida) were cultured as previously described. Twenty-four hours before drug treatment, the media was replaced with serum-free media. Cells were then incubated with drugs (dissolved in DMSO) or vehicle for 24 h for collection of conditioned media and cell lysates. For the PKC inhibitors experiment, three inhibitors were treated 30 min prior to drug challenge. Primary cortical neurons were prepared from embryonic day 18 APP and presenilin 1 (APPswe, PSEN1dE9) transgenic mice on the C57BL/6 genetic background (Jackson Laboratories, strain no. 5864) as previously described. THLE-3 human hepatoma cells (from ATCC) were plated in 24-well plates that were precoated with 10 μg/mL bovine serum albumin, 10 μg/mL fibronectin, and 30 μg/mL bovine type I collagen. The cells were grown in BEGM media (Clonetics) until confluent and treated with drugs at 20 μM for 24 h. This conditioned media was harvested, diluted 1:1 in serum-free medium, and incubated with H4βAPP695 wt cells for 24 h prior to analysis of secreted Aβ, which was compared to the effect of 10 μM drug treatments without prior incubation with the THLE-3 cells. Caco-2 cells (ATCC) were plated in 12-well plates with Transwell inserts (Costar) at 70000 cells per well and grown for 21 days. The media volume of the apical and basal chambers was 0.5 and 1.5 mL, respectively. Transepithelial resistance was measured in each well and found to be >160 Ω/cm^2. Drugs at 40 μM and 20 μg/mL of lucifer yellow were added in serum-free medium to the apical chamber. Four hours later, the basal chamber media was harvested and used to measure lucifer yellow fluorescence to confirm monolayer integrity as well as for treatment of H4βAPP695 wt cells for 24 h prior to analysis of secreted Aβ, which was compared to the effect of direct addition of 10 μM of the corresponding drug.
Monolayer integrity was confirmed by high levels of transcellular electrical resistance (>160 ohms/cm^2) and by transcellular impermeability to the fluorescent dye lucifer yellow. […] The concentration of each compound added to the upper chamber would lead to 10 μM in the lower chamber if equilibration was complete, and thus the activity of the lower chamber media was compared to the activity of 10 μM drug added directly to the H4βAPP695 wt cells. […] Compound 1 crossed the monolayer and the bottom chamber media led to a 27% reduction in Aβ production, yielding 38% of the theoretical activity. The compound with the most activity in the lower chamber was compound 48, which decreased Aβ production by 50%, with 71% of its theoretical activity. […] On the basis of the combined activity data from these last two studies, compound 48 was selected as the lead drug for in vivo study.

Where “and” joins values, the source holds several entries; their conditions need not be identical. Identical values can stand only once.

`O=C(NCCSCc1cccc(Cl)c1)c1c(Cl)cccc1Cl` [Compound 1]: in data set [1] (10 μM), the “time at which α-CTF increase is first observed” value was 2 h and the “time to maximal α-CTF levels” value is given as at most 8 h. Also, the “increase in cellular α-CTF in presence of cyclohexamide” value in data set [1] (4 h treatment) was “not blocked”. In data set [2] (% of activity passing through Caco-2 monolayer), the “% theoretical activity” value was 38% and 38.4%. In addition, the inhibition at 10 µM in data set [2] (Homo sapiens, Caco-2, 10 μM drug alone added directly to H4βAPP695 wt cells, read-out: transcellular transport No total Aβ (% decrease)) turned out to be 69.4%. Besides, the inhibition at up to 10 µM in data set [2] (Homo sapiens, Caco-2, 4 h, lower chamber media after 4 h on Caco-2 monolayer, 10 μM if in equilibrium, read-out: transcellular transport Yes total Aβ (% decrease)) was 27%.
